pIC50: −log10 of the molar value. Like-named read-outs stand apart in the source and are kept apart here.
Experiments:
Type in all cases: cell-based
HCT116 = experiment: 14C-Thymidine incorporation assay, HCT116; settings: Homo sapiens, HCT-116; for IC50: HCT116 (colon), average, read-out: Average IC50 (nM) against HCT116 (colon); for pIC50: HCT116, Colon, 72 h + 24 h 14C-Thymidine, read-out: IC50
Method: (§1) Experimental conditions for 14C-Thymidine incorporation assays: • 1) Cells were seeded in 96 well Cytostar microplates in 180 μl of culture medium (DMEM supplemented with 10% Fetal Calf Serum). • Seeding density are 2500 cells/well for HCT116, 5000 cells/well for HT29 and PC3 and 10000 cells/well for MDA-MB231, MDA-A1, H460 and B16F10. • 2) The microplates were incubated 4 h at 37° C. with 5% CO2 • 3) 10 μl of test compound were added • 4) The microplates were incubated 72 h at 37° C. with 5% CO2 • 5) 10 μl of 14C-Thymidine at 10 μCi/ml was added • 6) The microplates were incubated 24 h at 37° C. with 5% CO2 • 7) The radioactivity incorporated in the cells was measured with a Microbeta Trilux radioactivity scintillation counter (Wallac).

HL60 = experiment: ATP viability assay (CellTiterGlo), HL60; settings: Homo sapiens, HL-60; HL60, Leukemia; 96 h incubation
Method: (§2) Experimental conditions for ATP viability assays: • 1) Cells were seeded in 96 well microplates in 135 μl of culture medium. • Culture medium used were RPMI supplemented with 10% Fetal Calf Serum for HL60 and CEM cell lines and DMEM with 10% FCS for Normal Human Dermal Fibroblasts (NHDF). Seeding density was 25000 cells/well for HL60 and CEM and 7500 cells/well for NHDF. • 2) The microplates were incubated 4 h at 37° C. with 5% CO2. • 3) 15 μl of test compound were added • 4) The microplates were incubated 96 h. • 5) 100 μl of a mix of lysing reagent and luciferase/luciferin was added (CellTiterGlo, Promega). The luminescence emitted was measured with a Microbeta Trilux counter (Wallac).

H460 = experiment: 14C-Thymidine incorporation assay, H460; settings: Homo sapiens, NCI-H460; H460, Lung; 72 h + 24 h 14C-Thymidine
Method: as §1

[1] = system: Normal Human Dermal Fibroblasts (NHDF); experiment: ATP viability assay (CellTiterGlo), NHDF; settings: 96 h incubation
Method: as §2

HT29 = experiment: 14C-Thymidine incorporation assay, HT29; settings: Homo sapiens, HT-29; HT29, Colon; 72 h + 24 h 14C-Thymidine
Method: as §1

MDA-MB231 = experiment: 14C-Thymidine incorporation assay, MDA-MB231; settings: Homo sapiens, MDA-MB-231; MDA-MB231, Breast; 72 h + 24 h 14C-Thymidine
Method: as §1

B16F10 = experiment: 14C-Thymidine incorporation assay, B16F10; settings: Mus musculus, B16-F10; B16F10, Melanoma; 72 h + 24 h 14C-Thymidine
Method: as §1

MDA-A1 = experiment: 14C-Thymidine incorporation assay, MDA-A1; settings: MDA-A1, Breast; 72 h + 24 h 14C-Thymidine
Method: as §1

CEM = experiment: ATP viability assay (CellTiterGlo), CEM; settings: Homo sapiens, CCRF-CEM, Leukemia, 96 h incubation
Method: as §2

PC3 = experiment: 14C-Thymidine incorporation assay, PC3; settings: Homo sapiens, PC-3; PC3, Prostate; 72 h + 24 h 14C-Thymidine
Method: as §1

For `CCC(C)C1C(=O)NC(Cc2ccc(O)c(Cl)c2)C(=O)NC(C(C)(C)O)C(=O)OC(c2ccccc2)C(C)/C=C/C=C(\C)C(OC)CC2OC2(C)C(=O)N1C` (stereo not drawn) [III], the IC50 (HCT116) was 0.326 nM.

With `CCC(C)C1C(=O)NC(Cc2cc(Cl)c(O)c(Cl)c2)C(=O)NC(C(C)(C)O)C(=O)OC(c2ccccc2)C(C)/C=C/C=C(\C)C(OC)CC2OC2(C)C(=O)N1C` (stereo not drawn) [II] the pIC50 (HL60) was 7.82 to 8.02, the pIC50 (H460) was 7.98 to 8.04 and the pIC50 [1] was 8.02 to 8.21. For the same molecule, the pIC50 (HT29) was 7.90 to 8.52, the pIC50 (MDA-MB231) was 7.77 to 8.32 and the pIC50 (B16F10) was 7.60 to 8.35. The pIC50 (MDA-A1) was 7.68 to 8.85, the pIC50 (HCT116) was 8.25 to 9.22 and the pIC50 (CEM) was 7.98 to 8.15. The pIC50 (PC3) was 7.80 to 8.36.

In the case of `CCC(C)C1C(=O)NC(Cc2cc(Cl)c(OC)c(Cl)c2)C(=O)NC(C(C)(C)O)C(=O)OC(c2ccccc2)C(C)/C=C/C=C(\C)C(OC)CC2OC2(C)C(=O)N1C` (stereo not drawn) [IX], the pIC50 (MDA-MB231) was 8.08 to 8.29, the pIC50 (MDA-A1) was 7.85 to 8.02 and the pIC50 (HCT116) was 8.66 to 8.68.

`CCC(C)C1C(=O)NC(Cc2ccc(O)c(Br)c2)C(=O)NC(C(C)(C)O)C(=O)OC(c2ccccc2)C(C)/C=C/C=C(\C)C(OC)C/C=C(/C)C(=O)N1C` (stereo not drawn) [VIII] was tested, and the IC50 (HCT116) was 2.1 nM.

With `CCC(C)C1C(=O)NC(Cc2ccc(O)c(Br)c2)C(=O)NC(C(C)(C)O)C(=O)OC(c2ccccc2)C(C)/C=C/C=C(\C)C(OC)CC2OC2(C)C(=O)N1C` (stereo not drawn) [VII] the IC50 (HCT116) was 0.268 nM.

For `CCC(C)C1C(=O)NC(Cc2cc(Cl)c(O)c(Br)c2)C(=O)NC(C(C)(C)O)C(=O)OC(c2ccccc2)C(C)/C=C/C=C(\C)C(OC)CC2OC2(C)C(=O)N1C` (stereo not drawn) [VI], the IC50 (HCT116) was 0.393 nM.

`COC1CC2OC2(C)C(=O)N(C)C(C(C)C)C(=O)NC(Cc2cc(Cl)c(O)c(Cl)c2)C(=O)NC(C(C)(C)O)C(=O)OC(c2ccccc2)C(C)/C=C/C=C/1C` (stereo not drawn) [V] showed an IC50 (HCT116) of 0.673 nM.

From patent US20110306563A1, “MACROLACTONE DERIVATIVES, METHOD FOR THE PRODUCTION THEREOF AND USE THEREOF FOR THE TREATMENT OF CANCER” (SANOFI, priority 2008, published 2011)
